Results from PubChem BioAssay (NCI).
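48-hour exposure; five concentrations; linearly interpolated endpoints. Here, GI50 denotes the concentration required for 50% inhibition of growth. TGI marks complete inhibition of growth.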

What was measured:
Assay in all cases: growth of human tumour cells (NCI), 48 h
[1] = tested on: SF-268 CNS
[2] = tested on: T-47D breast
[3] = tested on: CCRF-CEM leukemia
[4] = tested on: UACC-62 melanoma
[5] = tested on: A549 NSCLC
[6] = tested on: EKVX NSCLC
[7] = tested on: CAKI-1 renal
[8] = tested on: HCT-116 colon
[9] = tested on: A498 renal
[10] = tested on: HOP-62 NSCLC
[11] = tested on: HS 578T breast
[12] = tested on: SF-539 CNS
[13] = tested on: KM12 colon
[14] = tested on: NCI-H460 lung
[15] = tested on: K-562 leukemia
[16] = tested on: UO-31 renal
[17] = tested on: M14 melanoma
[18] = tested on: HCC-2998 colon
[19] = tested on: RPMI-8226 leukemia
[20] = tested on: RXF 393 renal
[21] = tested on: ACHN renal
[22] = tested on: MCF7 breast
[23] = tested on: OVCAR-8 ovarian
[24] = tested on: MDA-N
[25] = tested on: HOP-92 NSCLC
[26] = tested on: NCI/ADR-RES ovarian
[27] = tested on: NCI-H522 lung
[28] = tested on: DU-145 prostate
[29] = tested on: 786-0 renal
[30] = tested on: NCI-H226 lung
[31] = tested on: HCT-15 colon
[32] = tested on: U251 CNS
[33] = tested on: MDA-MB-231 breast
[34] = tested on: HT29 colon
[35] = tested on: SN12C renal
[36] = tested on: SNB-75 CNS
[37] = tested on: OVCAR-5 ovarian
[38] = tested on: MDA-MB-435
[39] = tested on: TK-10 renal
[40] = tested on: SW-620 colon
[41] = tested on: MOLT-4 leukemia
[42] = tested on: SF-295 CNS
[43] = tested on: SK-MEL-5 melanoma
[44] = tested on: HL-60(TB) leukemia
[45] = tested on: NCI-H23 lung
[46] = tested on: SR leukemia
[47] = tested on: OVCAR-3 ovarian
[48] = tested on: SK-OV-3 ovarian
[49] = tested on: UACC-257 melanoma
[50] = tested on: LOX IMVI melanoma
[51] = tested on: COLO 205 colon
[52] = tested on: IGROV1 ovarian
[53] = tested on: MALME-3M melanoma
[54] = tested on: SK-MEL-28 melanoma
[55] = tested on: SK-MEL-2 melanoma
[56] = tested on: BT-549 breast
[57] = tested on: OVCAR-4 ovarian
[58] = tested on: SNB-19 CNS
[59] = tested on: PC-3 prostate

Structure (SMILES): COc1cc(C(C)(C)C)c(OC(=O)/C=C/C(=O)O/C=C/[N+](=O)[O-])c(C(C)(C)C)c1
- TGI [1]: 75700 nM
- TGI [2]: > 100000 nM
- TGI [3]: 37300 nM
- TGI [4]: > 100000 nM
- TGI [5]: 55000 nM
- TGI [6]: > 100000 nM
- TGI [7]: 57500 nM
- TGI [8]: > 100000 nM
- TGI [9]: 96600 nM
- TGI [10]: > 100000 nM
- TGI [11]: 63900 nM
- TGI [12]: > 100000 nM
- TGI [13]: 38500 nM
- TGI [14]: > 100000 nM
- TGI [15]: > 100000 nM
- TGI [16]: 76900 nM
- TGI [17]: 65600 nM
- TGI [18]: > 100000 nM
- TGI [19]: > 100000 nM
- TGI [20]: 81700 nM
- TGI [21]: > 100000 nM
- TGI [22]: 40400 nM
- TGI [23]: > 100000 nM
- TGI [24]: > 100000 nM
- TGI [25]: > 100000 nM
- TGI [26]: 57800 nM
- TGI [27]: 85700 nM
- TGI [28]: > 100000 nM
- TGI [29]: > 100000 nM
- TGI [30]: > 100000 nM
- TGI [31]: 48400 nM
- TGI [32]: > 100000 nM
- TGI [33]: 82100 nM
- TGI [34]: 56600 nM
- TGI [35]: > 100000 nM
- TGI [36]: > 100000 nM
- TGI [37]: > 100000 nM
- TGI [38]: 58100 nM
- TGI [39]: > 100000 nM
- TGI [40]: > 100000 nM
- TGI [41]: > 100000 nM
- TGI [42]: > 100000 nM
- TGI [43]: > 100000 nM
- TGI [44]: 4290 nM
- TGI [45]: 42600 nM
- TGI [46]: > 100000 nM
- TGI [47]: > 100000 nM
- TGI [48]: > 100000 nM
- TGI [49]: > 100000 nM
- TGI [50]: 75600 nM
- TGI [51]: > 100000 nM
- TGI [52]: > 100000 nM

Structure (SMILES): CC(=O)c1c[nH]c2ccc(-c3ccnc(Nc4ccc(NC(=O)c5cccc(F)c5)c(CN5CCOCC5)c4)n3)cc12
- GI50 [1]: 225 nM
- TGI [1]: 2490 nM
- GI50 [2]: 223 nM
- TGI [2]: 5450 nM
- GI50 [53]: 254 nM
- TGI [53]: 749 nM
- GI50 [3]: 134 nM
- TGI [3]: > 100000 nM
- GI50 [4]: 127 nM
- TGI [4]: 430 nM
- GI50 [5]: 185 nM
- TGI [5]: > 35500 nM
- GI50 [6]: 239 nM
- TGI [6]: 1520 nM
- GI50 [7]: 52.6 nM
- TGI [7]: 5020 nM
- GI50 [8]: 60.8 nM
- TGI [8]: 14700 nM
- GI50 [9]: 102 nM
- TGI [9]: 380 nM
- GI50 [10]: 221 nM
- TGI [10]: 18700 nM
- GI50 [11]: 124 nM
- TGI [11]: 1020 nM
- GI50 [54]: 233 nM
- TGI [54]: 4250 nM
- GI50 [55]: 180 nM
- TGI [55]: 549 nM
- GI50 [12]: 80.9 nM
- TGI [12]: 457 nM
- GI50 [13]: 89.2 nM
- TGI [13]: 1350 nM
- GI50 [14]: 176 nM
- GI50 [15]: 303 nM
- TGI [15]: > 100000 nM
- GI50 [16]: 96.1 nM
- TGI [16]: 1750 nM
- GI50 [17]: 188 nM
- TGI [17]: 794 nM
- GI50 [18]: 292 nM
- TGI [18]: 16600 nM
- GI50 [19]: 325 nM
- TGI [19]: 1350 nM
- GI50 [20]: 22.1 nM
- TGI [20]: 54 nM
- GI50 [21]: 84.5 nM
- TGI [21]: 3100 nM
- GI50 [56]: 208 nM
- TGI [56]: 3970 nM
- GI50 [22]: 149 nM
- TGI [22]: 1700 nM
- GI50 [23]: 255 nM
- TGI [23]: > 100000 nM
- GI50 [25]: 154 nM
- TGI [25]: 1170 nM
- GI50 [26]: 273 nM
- TGI [26]: 4350 nM
- GI50 [27]: 234 nM
- TGI [27]: 1610 nM
- GI50 [28]: 185 nM
- TGI [28]: > 100000 nM
- GI50 [29]: 157 nM
- TGI [29]: > 26200 nM
- GI50 [30]: 148 nM
- TGI [30]: 1760 nM
- GI50 [31]: 112 nM
- GI50 [32]: 218 nM
- TGI [32]: > 21000 nM
- GI50 [33]: 177 nM
- TGI [33]: 1300 nM
- GI50 [34]: 146 nM
- GI50 [35]: 153 nM
- TGI [35]: > 23300 nM
- GI50 [36]: 42 nM
- TGI [36]: 342 nM
- GI50 [57]: 307 nM
- TGI [57]: 3070 nM
- GI50 [37]: 129 nM
- TGI [37]: 1060 nM
- GI50 [38]: 204 nM
- TGI [38]: 1470 nM
- GI50 [39]: 268 nM
- TGI [39]: 1950 nM
- GI50 [40]: 206 nM
- TGI [40]: 4820 nM
- GI50 [41]: 262 nM
- TGI [41]: > 100000 nM
- GI50 [42]: 249 nM
- TGI [42]: 1750 nM
- GI50 [58]: 218 nM
- TGI [58]: 9800 nM
- GI50 [43]: 135 nM
- TGI [43]: 463 nM
- GI50 [44]: 242 nM
- TGI [44]: 928 nM
- GI50 [45]: 195 nM
- TGI [45]: 1090 nM
- GI50 [46]: 36.3 nM
- TGI [46]: > 100000 nM
- GI50 [59]: 224 nM
- TGI [59]: 2960 nM
- GI50 [47]: 95.5 nM
- TGI [47]: 932 nM
- GI50 [48]: 562 nM
- TGI [48]: > 100000 nM
- GI50 [49]: 304 nM
- TGI [49]: 2650 nM
- GI50 [50]: 60.4 nM
- TGI [50]: 450 nM
- GI50 [51]: 63.7 nM
- TGI [51]: 317 nM
- GI50 [52]: 151 nM
- TGI [52]: 1690 nM
